Assay results reported in patent publication US8298176B2, “Flow-induced delivery from a drug mass” (priority 2006, dated 2012).

Experiments:
[1] = cited from earlier work
[2] = Dissolution of gacyclidine base pellets in a continuous flow reactor (elution with Ringer's solution containing hydrochloric acid); assay type: physicochemical; settings: for pH of the eluted drug solution: room temperature (23±2° C.)
Protocol: A drug chamber similar to the one illustrated in FIGS. 2 and 4 was loaded with 11 pellets of gacyclidine base having a combined mass of 18 mg. This drug-loaded chamber was eluted at a flow rate of 20 μL/hr at room temperature (23±2° C.) using a MiniMed 508 syringe pump (available from Medtronics MiniMed of Northridge, Calif.). The syringe was loaded with 3 mL of Ringer's solution containing 0.05 to 3 mM hydrochloric acid. The eluted volume was collected in PTFE tubing attached to the pump drug capsule assembly, after a 3-D antibacterial filter. The pH of this solution was determined by use of a pH meter equipped with a Calomel electrode. Drug concentration was determined by HPLC.
The highest pH of the eluted drug solution (5.9) was obtained at 0.05 mM hydrochloric acid, and the lowest pH of the eluted drug solution (5.6) was obtained at 3 mM hydrochloric acid. These pH values indicate quantitative conversion of the hydrochloric acid to the drug salt and are consistent with the pH expected for solutions of the hydrochloride salt.

[3] = body temperature / in the presence of water; cited from earlier work

SMILES | water solubility (in words) [1] | correlation in gacyclidine concentration per hydrochloric acid concentration used for elution ([2]; 0.05 to 3 mM HCl in Ringer's solution, 20 μL/hr, linear fit of FIG. 26, drug by HPLC) | pH of the eluted drug solution ([2]; eluted with Ringer's solution containing 0.05 mM hydrochloric acid, 20 μL/hr, highest pH) | pH of the eluted drug solution ([2]; eluted with Ringer's solution containing 3 mM hydrochloric acid, 20 μL/hr, lowest pH) | intercept at zero concentration of hydrochloric acid ([2]; linear fit of FIG. 26, gacyclidine concentration in eluate) | stability (in words) [3]
CCN(CC)C(=O)SC[C@H](NC(=O)CC[C@H](N)C(=O)O)C(=O)NCC(=O)O [carbamathione] | sparingly soluble in water | – | – | – | – | –
CC1CCCCC1(c1cccs1)N1CCCCC1 (stereo not shown) [gacyclidine] | sparingly soluble in water | 0.976±0.049 | 5.9 | 5.6 | 0.0014 ± 0.0061 mM | much more stable than its acidic form in the presence of water
C[C@H]1CCCC[C@@]1(c1cccs1)N1CCCCC1.Cl [hydrochloride salt of gacyclidine] | highly water soluble | – | – | – | – | unstable at body temperature
CC1(C)O[C@@H]2C[C@H]3[C@@H]4CCC5=CC(=O)C=C[C@]5(C)[C@@]4(F)[C@@H](O)C[C@]3(C)[C@]2(C(=O)CO)O1 [triamcinolone acetonide] | very low water solubility | – | – | – | – | –
